The values below come from paper PMC4109680, “Identification and Preclinical Pharmacology of the γ-Secretase Modulator BMS-869780” (International Journal of Alzheimer's Disease, 2014).

One assay relates to mNotch1ΔE. In words: Notch signaling CBF1-luciferase reporter assay in HeLa cells transfected with mNotch1ΔE. The format is cell-based. The protocol: (§1) Inhibition of Notch signaling in cultured cells using a mouse-derived truncated Notch1 transgene, mNotch-ΔE [67], has been described in detail previously. Western blots for mNotchΔ1865 and NICD using 9E10 anti-c-myc monoclonal were carried out as previously described.
(§2) The effect of BMS-869780 on Notch processing was evaluated using transcriptional reporter assays and western blotting of NICD levels. HeLa cell cultures were transfected with mNotch1ΔE and CBF1-luciferase reporter constructs and treated with BMS-869780. In most replicates of this experiment, inhibition of luciferase reporter occurred with IC50 > 10 μM. […] To further evaluate the effect of BMS-869780 on Notch processing, western blots of cell cultures were carried out using mNotch1Δ1865, a truncated version of mNotch1ΔE that facilitates separation of NICD product from mNotch1 substrate on western blots. HeLa cell cultures were transfected with mNotch1Δ1865 and treated overnight with compounds before western blotting. […] Furthermore, the GSIs caused an increased level of mNotch1Δ1865 substrate, most likely due to inhibition of its turnover by γ-secretase, as previously noted by Blat et al..
(§3) (b) HeLa cell cultures were transfected with mNotchΔ1865, treated with compounds overnight, and cell extracts were evaluated by western blot using anti-c-myc-HRP conjugate. Lanes 1 and 9: DMSO (0.1%) vehicle. Lane 2: BMS-299897 at 1 μM. Lane 3: BMS-433796 at 0.3 μM. Lanes 4–8: BMS-869780 at 0.1, 0.3, 1, 3, and 10 μM, respectively.
(Reporter assays use an easily measured gene product as a stand-in for the process of interest.)

Another assay concerns Aβ1-42 (H4-APPsw). In words: Aβ1-42 time-resolved fluorescence immunoassay in H4-APPsw cell cultures. The format is cell-based, human. The conditions noted are these: Homo sapiens; H4-APPsw cultures treated overnight. As to the method:
(§4) H4-APPsw cell cultures were maintained on Dulbecco's modified Eagle's medium (DMEM) supplemented with L-glutamine (2 mM), fetal bovine serum (10%), and G418 (100 μg/mL). […] Aβ1-42 and Aβ1-40 assays, and Notch inhibition assays, were carried out as described previously. Mouse embryonic fibroblasts deficient in PS1 and PS2 (MEF dKO) were passaged twice per week in DMEM/F-12 medium, consisting of a 1 : 1 mixture of DMEM and F-12 nutrient mixture supplemented with 10% fetal bovine serum, penicillin, and streptomycin. For expression of human presenilin-1 in MEF dKO cells, the full length human presenilin-1 cDNA open reading frame was cloned between the BamHI and XhoI sites of the vector pcDNA5/FRT (Invitrogen), placing presenilin-1 expression under the control of the CMV promoter. The M146V mutated allele was introduced into the presenilin-1 expression construct by polymerase chain reaction using the oligonucleotide primers 5′-[…]-3′ and 5′-[…]-3 (QuikChange kit, Invitrogen). MEF dKO cultures were cotransfected with DNA constructs expressing APP-CTF, encoding the C-terminal 99 amino acids of APP [61] and either the human presenilin-1 or presenilin-1 M146V allele. Transfected cultures were incubated overnight at 37°C in 5% CO2 atmosphere and then harvested, resuspended in DMEM/F-12 medium, dispensed into 96-well culture plates, and incubated for 6 hours at 37°C in 5% CO2 atmosphere. Culture medium was then replaced with Ultraculture serum free medium (Lonza, Rockland, ME) with or without compounds at a range of concentrations and incubated overnight.
(§5) IC50 determinations for Aβ1-42 and Aβ1-40 in H4-APPsw cultures in 384-well format were determined using homogeneous time-resolved fluorescence immunoassays as previously described. The principle of these assays is illustrated in Figures 1(c) and 1(d). In other experiments using H4-APPsw cultures, Aβ was quantified by ELISA; for Aβ1-42 the combination of monoclonal antibodies was 26D6 and 565-HRP; for Aβ1-40 it was TSD and 26D6-HRP, and for Aβ1-x it was 4G8 and 26D6-HRP. In some experiments a novel 4-plex Aβ electrochemiluminescence immunoassay was used (Mesoscale Discovery catalog number N45ZA-1). Briefly, the 4-plex was carried out in 96-well format, with 4 separate spots of capture antibodies in each well. […] For Aβ in transiently transfected PS1/PS2 dKO fibroblasts, Aβ1-42 was quantified using an ELISA kit (WACO), and Aβ1-40 was quantified by ELISA as described above for H4-APPsw cultures. […] For the rat and mouse experiments illustrated in Figures 7 and 8, brain samples were prepared by solid phase extraction, and endogenous rat brain Aβ1-42 and Aβ1-40 were quantified by ELISA as previously described for wild type mice. […]

Another assay deals with mNotch1Δ1865. As to the kind of experiment: Western blot of NICD and mNotch1Δ1865 in transfected HeLa cell cultures. Format: cell-based. To be noted: BMS-299897 at 1 μM, BMS-433796 at 0.3 μM. As to the method:
as §1, §2, §3
Background: A western blot detects proteins with antibodies after separation by electrophoresis.

In a further assay the test system is Aβ1-40 (H4-APPsw). As to the kind of experiment: Aβ1-40 time-resolved fluorescence immunoassay in H4-APPsw cell cultures. The format is cell-based, human. The conditions noted are these: Homo sapiens; H4-APPsw cultures treated overnight. As to the method: as §4, §5

As to `C[C@H](NC(=O)[C@@H](O)c1cc(F)cc(F)c1)C(=O)N[C@@H]1C(=O)N(C)N=Cc2ccccc21` [BMS-433796, (S)-2-((S)-2-(3,5-difluorophenyl)-2-hydroxyacetamido)-N-((S,Z)-3-methyl-4-oxo-4,5-dihydro-3H-benzo[d][1,2]diazepin-5-yl)propanamide, reference compound], the “Notch/Aβ1-42 IC50 ratios” value in the assay with mNotch1ΔE (GSIs) stood at 13. For the same compound, the IC50 in the assay with mNotch1ΔE (HeLa, treated overnight) came out at 2.1 nM; in the assay on Aβ1-42 (H4-APPsw) it was 0.16 nM; in the assay on Aβ1-40 (H4-APPsw), 0.19 nM. Besides, in the assay on mNotch1ΔE (ratio of IC50 values), the mNotch1ΔE/Aβ1-42 is recorded as 13x. Besides, the NICD levels result with mNotch1Δ1865 is “greatly reduced NICD”.

A word on the IC50: it is the concentration at which inhibition is half-maximal.
